target: T1, CYP17 (human testicular microsome) (Homo sapiens, UniProt P05093); assay: CYP17 enzymatic assay (% inhibition at 10 nM), version 1 (Biological Example 5); format: biochemical; conditions: 10 nM compound, DHEA by ELISA, read-out: Biological Example No. 5: CYP17 percent inhibition at 10 nM (version 1)
T1 construct: using microsomal fraction from human testis (Celsis Cat #S00110) as the enzyme source; tissue Celsis S00110; host or cells: human testis microsomal fraction
T1 sequence (P05093 1-508): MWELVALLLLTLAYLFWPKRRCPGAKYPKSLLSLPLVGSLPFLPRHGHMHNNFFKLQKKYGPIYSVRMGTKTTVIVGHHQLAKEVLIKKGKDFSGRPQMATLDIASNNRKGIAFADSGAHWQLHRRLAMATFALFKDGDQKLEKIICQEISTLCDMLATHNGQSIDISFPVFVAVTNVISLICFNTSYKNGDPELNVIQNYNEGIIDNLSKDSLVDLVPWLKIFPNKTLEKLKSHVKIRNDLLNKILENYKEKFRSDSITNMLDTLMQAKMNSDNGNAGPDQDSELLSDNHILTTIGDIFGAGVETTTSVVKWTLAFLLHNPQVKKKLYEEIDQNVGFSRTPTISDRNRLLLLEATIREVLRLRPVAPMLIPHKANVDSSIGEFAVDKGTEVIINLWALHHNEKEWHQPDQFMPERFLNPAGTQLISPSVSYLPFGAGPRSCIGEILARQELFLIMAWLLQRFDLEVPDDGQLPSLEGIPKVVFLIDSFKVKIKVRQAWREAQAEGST

First: CCc1cncc(C2=CC[C@H]3[C@@H]4CC[C@H]5CCCCC[C@]5(C)[C@H]4CC[C@]23C)c1 [Compound 93, 3-((3aS,3bR,5aR,10aS,10bS,12aS)-10a,12a-dimethyl-3,3a,3b,4,5,5a,6,7,8,9,10,10a,10b,11,12,12a-hexadecahydrocyclohepta[a]cyclopenta[f]naphthalen-1-yl)-5-ethylpyridine]
Second: COc1cncc(C2=CC[C@H]3[C@@H]4CC[C@H]5CCCCC[C@]5(C)[C@H]4CC[C@]23C)c1 [Compound 92, 3-((3aS,3bR,5aR,10aS,10bS,12aS)-10a,12a-dimethyl-3,3a,3b,4,5,5a,6,7,8,9,10,10a,10b,11,12,12a-hexadecahydrocyclohepta[a]cyclopenta[f]naphthalen-1-yl)-5-methoxypyridine]
The inhibition at 0.01 µM of the first is lower: 1 to 50% for the first, 50 to 80% for the second.

`Cc1cncc(C2=CC[C@H]3[C@@H]4CCN5CCCCC[C@]5(C)[C@H]4CC[C@]23C)c1` [Compound 45, (11aR,13aS)-11a,13a-dimethyl-1-(5-methylpyridin-3-yl)-3a,3b,4,5,7,8,9,10,11,11a,11b,12,13,13a-tetradecahydro-3H-azepino[2,1-a]cyclopenta[f]isoquinoline] and `Cc1cncc(C2=CC[C@H]3[C@@H]4CCC5N(C)C(=O)COC[C@]5(C)[C@H]4CC[C@]23C)c1` (stereo partly drawn) [Compound 445, (5aR,5bS,7aS,10aS,10bS)-1,5a,7a-trimethyl-8-(5-methylpyridin-3-yl)-5,5a,5b,6,7,7a,10,10a,10b,11,12,12a-dodecahydro-1H-cyclopenta[5,6]naphtho[2,1-e][1,4]oxazepin-2(3H)-one] fall in the same range of inhibition at 0.01 µM: 1 to 50% for the first, 1 to 50% for the second.

`C[C@]12CCCCC[C@@H]1CC[C@@H]1[C@@H]2CC[C@]2(C)C(c3cccnc3)=CC[C@@H]12` [Compound 90, 3-((3aS,3bR,5aR,10aS,10bS,12aS)-10a,12a-dimethyl-3,3a,3b,4,5,5a,6,7,8,9,10,10a,10b,11,12,12a-hexadecahydrocyclohepta[a]cyclopenta[f]naphthalen-1-yl)pyridine] and `C[C@]12CCNCCC1CCC1C2CC[C@]2(C)C(n3ccnn3)=CCC12` (stereo partly drawn) [Compound 139, (5aS,7aS)-5a,7a-dimethyl-8-(1H-1,2,3-triazol-1-yl)-1,2,3,4,5,5a,5b,6,7,7a,10,10a,10b,11,12,12a-hexadecahydrocyclopenta[5,6]naphtho[1,2-d]azepine] fall in the same range of inhibition at 0.01 µM: 1 to 50% for the first, 1 to 50% for the second.

Compared with `C[C@]12CCC(=O)NCC1CCC1C2CC[C@]2(C)C(n3ccnc3)=CCC12` (stereo partly drawn) [Compound 136, (5aR,7aS)-8-(1H-imidazol-1-yl)-5a,7a-dimethyl-1,2,5,5a,5b,6,7,7a,10,10a,10b,11,12,12a-tetradecahydrocyclopenta[5,6]naphtho[2,1-c]azepin-3(4H)-one], `C[C@]12CCCNCC1CCC1C2CC[C@]2(C)C(n3ccnn3)=CCC12` (stereo partly drawn) [Compound 140, (5aR,7aS)-5a,7a-dimethyl-8-(1H-1,2,3-triazol-1-yl)-1,2,3,4,5,5a,5b,6,7,7a,10,10a,10b,11,12,12a-hexadecahydrocyclopenta[5,6]naphtho[2,1-c]azepine] is lower in inhibition at 0.01 µM: 50 to 80% for the first, 1 to 50% for the second.

First: COc1cncc(C2=CC[C@H]3[C@@H]4CC=C5CCCC[C@]5(C)[C@H]4CC[C@]23C)c1 [Compound 66, 3-((10R,13S)-10,13-dimethyl-2,3,4,7,8,9,10,11,12,13,14,15-dodecahydro-1H-cyclopenta[a]phenanthren-17-yl)-5-methoxypyridine]
Second: CCCOc1cncc(C2=CC[C@H]3[C@@H]4CCC5=CCN(C)CC[C@]5(C)[C@H]4CC[C@]23C)c1 [Compound 149]
The inhibition at 0.01 µM of the first is higher: 50 to 80% for the first, 1 to 50% for the second.

`CCOc1cncc(C2=CC[C@H]3[C@@H]4CCC5N(C)C(=O)COC[C@]5(C)[C@H]4CC[C@]23C)c1` (stereo partly drawn) [Compound 99, (5aR,5bS,7aS,10aS,10bS)-8-(5-ethoxypyridin-3-yl)-1,5a,7a-trimethyl-5,5a,5b,6,7,7a,10,10a,10b,11,12,12a-dodecahydro-1H-cyclopenta[5,6]naphtho[2,1-e][1,4]oxazepin-2(3H)-one] gave an inhibition at 0.01 µM of 1 to 50%.
